Laboratory results taken from patent publication US8460858B2, “Near-infrared-ray absorbing material containing cyanine compound, and cyanine compound” (Adeka Corporation, priority 2008, dated 2013).
Counter-ions that a name gives are not always drawn.

Experiments:
[1] = Decomposition point measurement (TG/DTA); format: physicochemical; conditions: temperature at which the mass started to decrease, differential thermal analysis, temperature-rise rate 10° C./minute
Method: The UV-Visible absorption spectra measurement was conducted by preparing a chloroform solution of each compound to be tested, and employing a UV-Vis-NIR spectrophotometer (“V-570”; product from JASCO Corporation). The decomposition point measurement was conducted using a thermogravimetry differential thermal analyzer (“TG/DTA 6200”; product from Seiko Instruments Inc.), to find the temperature at which the mass started to decrease in differential thermal analysis at a temperature-rise rate of 10° C./minute.

[2] = Solubility measurement in methyl ethyl ketone (MEK); format: physicochemical; conditions: concentration when the solute completely dissolved
Method: The solubility measurement was conducted as follows: the compound to be tested was weighed; methyl ethyl ketone (MEK) was slowly added thereto; when the solute completely dissolved, the solution was weighed; and the concentration of the test compound in the solution was determined by calculation.

| Compound | Decomposition Point [1] | Solubility (MEK) [2] |
| --- | --- | --- |
| CN1/C(=C/C=C/C=C/C=C/C=C/C2=[N+](C)c3c(c4ccccc4c4ccccc34)C2(C)C)C(C)(C)c2c1c1ccccc1c1ccccc21 [1-4, reference compound] | 261.3 °C | 0.28 wt % |
| CN1/C(=C/C=C/C=C/C=C/C=C/C2=[N+](C)c3ccccc3C2(Cc2ccccc2)Cc2ccccc2)C(Cc2ccccc2)(Cc2ccccc2)c2ccccc21 [Example 1-1, Tetrafluoroborate Salt of Compound No. 2] | 238.3 °C | 0.16 wt % |
| O=S(=O)(c1ccc2c(c1)[S][Cu-]1([S]2)[S]c2ccc(S(=O)(=O)N3CCOCC3)cc2[S]1)N1CCOCC1 [1-3, reference compound] | 198.7 °C | 0.20 wt % |
| CN1/C(=C/C=C/C=C/C=C/C=C/C2=[N+](C)c3ccc4ccccc4c3C2(C)Cc2ccccc2)C(C)(Cc2ccccc2)c2c1ccc1ccccc21 (stereo not shown) [Example 1-3, Tetrafluoroborate Salt of Compound No. 3] | 180.5 °C | 0.97 wt % |
| O=S(=O)(c1ccc2c(c1)[S][Cu-]1([S]2)[S]c2ccc(S(=O)(=O)N3CCOCC3)cc2[S]1)N1CCOCC1 [Example 1-8, Quencher (1-1) Salt of Compound No. 4] | 258.8 °C | 3.69 wt % |
| CN1/C(=C/C=C/C=C/C=C/C=C/C2=[N+](C)c3c(c4ccccc4c4ccccc34)C2(C)C)C(C)(C)c2c1c1ccccc1c1ccccc21 [Example 1-12, bis(trifluoromethane sulfone)imide salt of Compound No. 105] | 291.5 °C | 1.13 wt % |
| CN1/C(=C/C=C/C=C/C=C/C=C/C2=[N+](C)c3ccc4ccccc4c3C2(Cc2ccccc2)Cc2ccccc2)C(Cc2ccccc2)(Cc2ccccc2)c2c1ccc1ccccc21 [Example 1-7, Bis(Trifluoromethane Sulfone)Imide Salt of Compound No. 4] | 266.5 °C | 3.71 wt % |
| CN1/C(=C/C=C/C=C/C=C/C=C/C2=[N+](C)c3ccccc3C2(C)C)C(C)(C)c2ccccc21 [Example 1-10, bis(trifluoromethane sulfone)imide salt of Compound No. 61] | 238.4 °C | 0.73 wt % |
| O=S(=O)(c1ccc2c(c1)[S][Cu-]1([S]2)[S]c2ccc(S(=O)(=O)N3CCOCC3)cc2[S]1)N1CCOCC1 [Example 1-5, Quencher (1-1) Salt of Compound No. 3] | 249.1 °C | 0.39 wt % |
| CCCN1/C(=C/C=C/C=C/C=C/C=C/C2=[N+](CCC)c3ccc4ccccc4c3C2(Cc2ccccc2)Cc2ccccc2)C(Cc2ccccc2)(Cc2ccccc2)c2c1ccc1ccccc21 [Example 1-9, Tetrafluoroborate Salt of Compound No. 6] | 193.8 °C | 1.36 wt % |

Second part, the molecule after the results:

| Decomposition Point [1] | Solubility (MEK) [2] | Compound |
| --- | --- | --- |
| 255.8 °C | 0.98 wt % | CN1/C(=C/C=C/C=C/C=C/C=C/C2=[N+](C)c3ccc4ccccc4c3C2(C)Cc2ccccc2)C(C)(Cc2ccccc2)c2c1ccc1ccccc21 (stereo not shown) [Example 1-4, Bis(Trifluoromethane Sulfone)Imide Salt of Compound No. 3] |
| 280.7 °C | 1.46 wt % | CN1/C(=C/C=C/C=C/C=C/C=C/C2=[N+](C)c3ccc4ccccc4c3C23CCCCC3)C2(CCCCC2)c2c1ccc1ccccc21 [Example 1-11, bis(trifluoromethane sulfone)imide salt of Compound No. 64] |
| 192.6 °C | 1.62 wt % | CN1/C(=C/C=C/C=C/C=C/C=C/C2=[N+](C)c3ccc4ccccc4c3C2(Cc2ccccc2)Cc2ccccc2)C(Cc2ccccc2)(Cc2ccccc2)c2c1ccc1ccccc21 [Example 1-6, Tetrafluoroborate Salt of Compound No. 4] |
| 248.6 °C | 2.34 wt % | CN1/C(=C/C=C/C=C/C=C/C=C/C2=[N+](C)c3ccccc3C2(Cc2ccccc2)Cc2ccccc2)C(Cc2ccccc2)(Cc2ccccc2)c2ccccc21 [Example 1-2, Bis(Trifluoromethane Sulfone)Imide Salt of Compound No. 2] |
